A value given as a limit tells only on which side of the number the result lay.

In one experiment the target is T1, human PAH with the R408W mutation (Homo sapiens, UniProt P00439, R408W).
T1 construct: expressed in transfected cells
T1 sequence (P00439 1-452 R408W): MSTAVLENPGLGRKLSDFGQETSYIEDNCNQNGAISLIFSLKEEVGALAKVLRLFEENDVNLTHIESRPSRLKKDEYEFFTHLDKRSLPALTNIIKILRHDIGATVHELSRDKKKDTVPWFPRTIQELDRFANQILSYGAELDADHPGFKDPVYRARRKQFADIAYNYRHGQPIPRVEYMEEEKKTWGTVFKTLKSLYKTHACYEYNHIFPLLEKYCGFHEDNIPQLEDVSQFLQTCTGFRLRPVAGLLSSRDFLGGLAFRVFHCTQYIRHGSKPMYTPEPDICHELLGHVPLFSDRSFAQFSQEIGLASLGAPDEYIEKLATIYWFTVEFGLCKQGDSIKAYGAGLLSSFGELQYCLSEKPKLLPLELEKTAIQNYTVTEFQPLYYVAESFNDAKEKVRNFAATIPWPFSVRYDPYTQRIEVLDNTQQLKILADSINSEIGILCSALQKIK
As to the kind of experiment: Cell Based Phenylalanine Flux Assay. Further details: scale not given here. The following applies: A375 cells expressing human R408W PAH; 24 hrs compound incubation; 13C-Tyrosine by LC-MS; average where tested multiple times; read-out: AC50.
What is called AC50 is the concentration at which the activity in the assay is half-maximal. For the compound `O=C(c1cnn2c(Br)cccc12)N1CCc2[nH]cnc2[C@@H]1c1nc2c(F)cccc2s1` [Example 1240, (R)-(7-bromopyrazolo[1,5-a]pyridin-3-yl)(4-(4-fluorobenzo[d]thiazol-2-yl)-6,7-dihydro-1H-imidazo[4,5-c]pyridin-5(4H)-yl)methanone], the concentration at half-maximal activity (AC50) was in the range of 1000 to 5000 nM.

On to `CC(C)(F)c1ccc2c(C(=O)N3CCc4[nH]cnc4[C@H]3c3nc4c(F)cccc4s3)cnn2c1` [Example 1489, (S)-(4-(4-fluorobenzo[d]thiazol-2-yl)-6,7-dihydro-1H-imidazo[4,5-c]pyridin-5(4H)-yl)(6-(2-fluoropropan-2-yl)pyrazolo[1,5-a]pyridin-3-yl)methanone], for which the half-maximal activity concentration (AC50) was in the range of 500 to 1000 nM.

In the case of `O=C(Cc1ncc(C2CC2)s1)N1CCc2[nH]cnc2[C@H]1c1nc2ccccc2s1` [Example 1459], the concentration at half-maximal activity (AC50) was 500 to 1000 nM.

Turning to `N#Cc1ccn2ncc(C(=O)N3CCc4[nH]cnc4[C@@H]3c3nc4ccc(F)cc4s3)c2c1` [Example 1156, (R)-3-(4-(6-fluorobenzo[d]thiazol-2-yl)-4,5,6,7-tetrahydro-1H-imidazo[4,5-c]pyridine-5-carbonyl)pyrazolo[1,5-a]pyridine-5-carbonitrile], the half-maximal activity concentration (AC50) is greater than 5000 nM.

As to `O=C(c1cnn2cc(-c3ccccn3)ccc12)N1CCc2[nH]cnc2[C@@H]1c1nc2ccccc2s1` [Example 1212, (R)-(4-(benzo[d]thiazol-2-yl)-6,7-dihydro-1H-imidazo[4,5-c]pyridin-5(4H)-yl)(6-(pyridin-2-yl)pyrazolo[1,5-a]pyridin-3-yl)methanone], the concentration at half-maximal activity (AC50) was greater than 5000 nM.

In the case of `O=C(C1CN(c2ccc(F)cn2)C1)N1CCc2[nH]cnc2[C@H]1c1nc2ccccc2s1` [Example 1837], the half-maximal activity concentration (AC50) fell in the range of 1000 to 5000 nM.

Turning to `Cn1ccc(-c2nnc(C(=O)N3CCc4[nH]cnc4[C@H]3c3nc4ccccc4s3)o2)n1` [Example 1805], the concentration at half-maximal activity (AC50) was less than 500 nM.

Turning to `O=C(c1cnc(C(F)F)s1)N1CCc2[nH]cnc2[C@@H]1c1nc2ccccc2s1` [Example 1522, (R)-(4-(benzo[d]thiazol-2-yl)-6,7-dihydro-1H-imidazo[4,5-c]pyridin-5(4H)-yl)(2-(difluoromethyl)thiazol-5-yl)methanone], the AC50 fell in the range of 1000 to 5000 nM.

For the compound `O=C(CC1CC1)N1CCc2[nH]cnc2[C@@H]1c1nc2ccccc2s1` [Example 1072, (R)-1-(4-(benzo[d]thiazol-2-yl)-6,7-dihydro-1H-imidazo[4,5-c]pyridin-5(4H)-yl)-2-cyclopropylethanone], the AC50 fell in the range of 1000 to 5000 nM.

With `N#Cc1ncoc1C(=O)N1CCc2[nH]cnc2[C@H]1c1nc2ccccc2s1` [Example 1583, (S)-5-(4-(benzo[d]thiazol-2-yl)-4,5,6,7-tetrahydro-1H-imidazo[4,5-c]pyridine-5-carbonyl)oxazole-4-carbonitrile], the concentration at half-maximal activity (AC50) was less than 500 nM.

For the compound `O=C(c1ocnc1C(F)(F)F)N1CCCc2[nH]cnc2[C@@H]1c1nc2ccccc2s1` [Example 2132, (R)-(4-(benzo[d]thiazol-2-yl)-7,8-dihydroimidazo[4,5-c]azepin-5(1H,4H,6H)-yl)(4-(trifluoromethyl)oxazol-5-yl)methanone], the AC50 fell in the range of 1000 to 5000 nM.

As to `CC(C)(O)c1nc(Cl)c(C(=O)N2CCc3[nH]cnc3[C@H]2c2nc3ccccc3s2)o1` [Example 1963], the concentration at half-maximal activity (AC50) is less than 500 nM.

In the case of `Cc1nc(C(F)(F)F)oc1C(=O)N1CCc2[nH]cnc2[C@H]1c1nc2ccccc2s1` [Example 1393], the concentration at half-maximal activity (AC50) was less than 500 nM.

`O=C(c1cc(C(F)(F)F)n[nH]1)N1CCc2[nH]cnc2[C@@H]1c1nc2c(F)cccc2s1` [Example 1815, (R)-(4-(4-fluorobenzo[d]thiazol-2-yl)-6,7-dihydro-1H-imidazo[4,5-c]pyridin-5(4H)-yl)(3-(trifluoromethyl)-1H-pyrazol-5-yl)methanone]: the AC50 was in the range of 1000 to 5000 nM.

Regarding `CCn1ncnc1C(=O)N1CCc2[nH]cnc2[C@H]1c1nc2ccccc2s1` [Example 1958], the concentration at half-maximal activity (AC50) is less than 500 nM.

Regarding `O=C(N1CC(F)C1)N1CCc2[nH]cnc2[C@H]1c1nc2ccccc2s1` [Example 1689], the AC50 is less than 500 nM.

In the case of `Cn1cc(C(=O)N2CCc3[nH]cnc3[C@@H]2c2nc3ccccc3s2)c(C(F)F)n1` [Example 1822, (R)-(4-(benzo[d]thiazol-2-yl)-6,7-dihydro-1H-imidazo[4,5-c]pyridin-5(4H)-yl)(3-(difluoromethyl)-1-methyl-1H-pyrazol-4-yl)methanone], the AC50 lay in the range of 1000 to 5000 nM.

Turning to `CC(C)n1ncc(C(=O)N2CCc3[nH]cnc3[C@H]2c2nc3c(F)cccc3s2)c1C(F)F` [Example 2001, (S)-(5-(difluoromethyl)-1-isopropyl-1H-pyrazol-4-yl)(4-(4-fluorobenzo[d]thiazol-2-yl)-6,7-dihydro-1H-imidazo[4,5-c]pyridin-5(4H)-yl)methanone], the AC50 was less than 500 nM.

`CC(O)c1nc(Cl)c(C(=O)N2CCc3[nH]cnc3[C@H]2c2nc3c(F)cccc3s2)o1` (single isomer, unassigned) [Example 2079]: the AC50 was less than 500 nM.

For the compound `O=C(c1cnn2ccc(F)cc12)N1CCc2[nH]cnc2[C@H]1c1nc2ccccc2s1` [Example 1103], the concentration at half-maximal activity (AC50) lay in the range of 500 to 1000 nM.

Turning to `O=C(c1cnn2ccc(Cl)cc12)N1CCc2[nH]cnc2[C@@H]1c1nc2cccc(F)c2s1` [Example 1302, (R)-(5-chloropyrazolo[1,5-a]pyridin-3-yl)(4-(7-fluorobenzo[d]thiazol-2-yl)-6,7-dihydro-1H-imidazo[4,5-c]pyridin-5(4H)-yl)methanone], the AC50 was less than 500 nM.

On to `CC(C)(O)Cc1nc(C(F)F)c(C(=O)N2CCc3[nH]cnc3[C@@H]2c2nc3c(F)cccc3s2)o1` [Example 2062, (R)-(4-(difluoromethyl)-2-(2-hydroxy-2-methylpropyl)oxazol-5-yl)(4-(4-fluorobenzo[d]thiazol-2-yl)-6,7-dihydro-1H-imidazo[4,5-c]pyridin-5(4H)-yl)methanone], for which the AC50 is 1000 to 5000 nM.

As for `O=C(c1nnc(-n2cccn2)o1)N1CCc2[nH]cnc2[C@@H]1c1nc2ccccc2s1` [Example 1791, (R)-(5-(1H-pyrazol-1-yl)-1,3,4-oxadiazol-2-yl)(4-(benzo[d]thiazol-2-yl)-6,7-dihydro-1H-imidazo[4,5-c]pyridin-5(4H)-yl)methanone], the AC50 fell in the range of 1000 to 5000 nM.

On to `CCn1ncnc1C(=O)N1CCc2[nH]cnc2[C@@H]1c1nc2c(F)cccc2s1` [Example 1960, (R)-(1-ethyl-1H-1,2,4-triazol-5-yl)(4-(4-fluorobenzo[d]thiazol-2-yl)-6,7-dihydro-1H-imidazo[4,5-c]pyridin-5(4H)-yl)methanone], for which the AC50 fell in the range of 1000 to 5000 nM.

Regarding `O=C(c1nc(Cl)cs1)N1CCc2[nH]cnc2[C@H]1c1nc2ccc(Br)cc2[nH]1` [Example 949, (S)-(4-(6-bromo-1H-benzo[d]imidazol-2-yl)-6,7-dihydro-1H-imidazo[4,5-c]pyridin-5(4H)-yl)(4-chlorothiazol-2-yl)methanone], the AC50 was less than 500 nM.

Still in this experiment, the particulars now being: A375 cells expressing human R408W PAH; 24 hrs with compound; 13C-Tyrosine by LC-MS; average where tested multiple times.
`CN(C)CCc1nc(C#N)c(C(=O)N2CCc3[nH]cnc3C2c2nc3ccccc3s2)o1` (stereo not shown): the AC50 entry is reported as “E, E”.

Staying with this experiment, now noted: A375 cells expressing human R408W PAH; 24 hrs with compound; 13C-Tyrosine by LC-MS; average where tested multiple times; read-out: AC50.
`Cn1nc(CC#N)nc1C(=O)N1CCc2[nH]cnc2[C@H]1c1nc2ccccc2s1` (single isomer, unassigned): the concentration at half-maximal activity (AC50) lay within 1000 to 5000 nM.

As for `CC(C)(C)CCC(=O)N1CCc2[nH]cnc2C1c1nc2ccc(Cl)cc2[nH]1` (stereo not shown), the half-maximal activity concentration (AC50) was 1000 to 5000 nM.

For the compound `O=C(c1nc2c(F)cccc2s1)N1CCc2[nH]cnc2[C@H]1c1nc2ccccc2[nH]1` [(S)-(4-(1H-benzo[d]imidazol-2-yl)-1,4,6,7-tetrahydro-5H-imidazo[4,5-c]pyridin-5-yl)(4-fluorobenzo[d]thiazol-2-yl)methanone], the AC50 fell in the range of 1000 to 5000 nM.

As for `O=C(c1cnn2c(Br)cccc12)N1CCc2[nH]cnc2[C@@H]1c1nc2ccccc2[nH]1` (single isomer, unassigned), the half-maximal activity concentration (AC50) is greater than 5000 nM.

As for `O=C(Cc1cncs1)N1CCc2[nH]cnc2[C@H]1c1nc2ccccc2[nH]1` [(S)-1-(4-(1H-benzo[d]imidazol-2-yl)-6,7-dihydro-1H-imidazo[4,5-c]pyridin-5(4H)-yl)-2-(thiazol-5-yl)ethanone], the AC50 was in the range of 1000 to 5000 nM.

For the compound `O=C(c1ccsn1)N1CCc2[nH]cnc2C1c1nc2ccccc2s1` (stereo not shown), the concentration at half-maximal activity (AC50) was in the range of 1000 to 5000 nM.

As for `O=C(C1CN(c2ccccn2)C1)N1CCc2[nH]cnc2C1c1nc2ccccc2s1` (stereo not shown), the half-maximal activity concentration (AC50) was in the range of 1000 to 5000 nM.

With `O=C(c1nccs1)N1CCc2[nH]cnc2C1c1nc2cc(F)ccc2s1` (stereo not shown), the AC50 fell in the range of 1000 to 5000 nM.

Take `O=C(c1cncs1)N1CCc2[nH]cnc2C1c1nc2ccc(Cl)cc2[nH]1` (stereo not shown): the AC50 lay in the range of 1000 to 5000 nM.

Regarding `O=C(Cc1cnco1)N1CCc2[nH]cnc2[C@@H]1c1nc2ccccc2s1` (single isomer, unassigned), the AC50 is greater than 5000 nM.

For `O=C(c1cc2ccccn2n1)N1CCc2nc[nH]c2C1c1nc2ccccc2s1` (stereo not shown), the AC50 is greater than 5000 nM.

Consider `O=C(c1nncs1)N1CCc2[nH]cnc2C1c1nc2ccccc2[nH]1` (stereo not shown), for which the AC50 is greater than 5000 nM.

As for `Cc1ncc(C(=O)N2CCc3[nH]cnc3C2c2nc3c(F)cccc3s2)o1` (stereo not shown), the AC50 was greater than 5000 nM.

As for `O=C(c1nc2ccccc2s1)N1CCc2[nH]cnc2C1c1nc2ccc(F)cc2s1` (stereo not shown), the AC50 is 1000 to 5000 nM.

The values above are taken from US20250171438A1 (Agios Pharmaceuticals, Inc., priority 2022, published 2025).
